In patent US9650395B2, “Antibacterial compounds and methods for use” (PTC Therapeutics, Inc., priority 2011, dated 2017):
In brackets after ≈: the same amount, converted by molar mass. Counter-ions that a name gives are not always drawn. Like-named read-outs stand apart in the source and are kept apart here.

Assays:
[1] = system: control Gram-negative E. coli 25922 strain; assay: Antibacterial activity, microbroth dilution MIC, E. coli 25922; type: cell-based, Escherichia coli; settings: Escherichia coli; E. coli 25922, microbroth dilution; read-out: MIC, 25922
[2] = system: quinolone resistant E. coli LZ3111; assay: Antibacterial activity, MIC, quinolone resistant E. coli LZ3111; type: cell-based, Escherichia coli; settings: Escherichia coli, read-out: MIC, LZ3111
Source text: (§1) The antibacterial activity from a microbroth dilution method may be presented as the minimum inhibitory concentration (MIC in […]). The MIC value is the lowest concentration of a drug which prevents macroscopically visible bacterial growth under test conditions.
Mutations in these regions are known to confer a high level resistance to the quinolone class of antibiotics.

[3] = system: Acinetobacter baumannii (A. baumannii) BAA747; assay: Antibacterial activity, MIC, A. baumannii BAA747; type: cell-based; settings: Acinetobacter baumannii; A. baumannii BAA747; read-out: MIC BAA747
[4] = system: Pseudomonas aeruginosa (P. aeruginosa) 27853; assay: Antibacterial activity, MIC, P. aeruginosa 27853; type: cell-based; settings: Pseudomonas aeruginosa, P. aeruginosa 27853; read-out: MIC 27853
Source text: as §1
Antibacterial activity of test compounds against the Gram-negative bacterium Pseudomonas aeruginosa (P. aeruginosa) 27853 is shown in Table 5.

[5] = system: E. coli ELZ4251 (MDR clinical isolate); assay: Antibacterial activity, MIC, MDR E. coli ELZ4251; type: cell-based, Escherichia coli; settings: Escherichia coli, E. coli ELZ4251, MDR clinical isolate; read-out: MIC ELZ4251
[6] = system: E. coli ELZ4000 (MDR clinical isolate); assay: Antibacterial activity, MIC, MDR E. coli ELZ4000; type: cell-based, Escherichia coli; settings: Escherichia coli; E. coli ELZ4000, MDR clinical isolate; read-out: MIC ELZ4000
[7] = system: super sensitive Gram-negative Escherichia coli (E. coli) BAS849; assay: Antibacterial activity, microbroth dilution MIC, E. coli BAS849; type: cell-based; settings: Escherichia coli, read-out: MIC, BAS849
[8] = system: Gram-positive Staphylococcus aureus (S. aureus) 29213; assay: Antibacterial activity, microbroth dilution MIC, S. aureus 29213; type: cell-based; settings: Staphylococcus aureus; S. aureus 29213, microbroth dilution; read-out: MIC, 29213
[9] = system: Moraxella catarrhalis (M. catarrhalis) 25238; assay: Antibacterial activity, MIC, M. catarrhalis 25238; type: cell-based; settings: Moraxella catarrhalis, M. catarrhalis 25238; read-out: MIC 25238
[10] = system: Haemophilus influenzae (H. influenzae) 49247; assay: Antibacterial activity, MIC, H. influenzae 49247; type: cell-based; settings: Haemophilus influenzae; H. influenzae 49247; read-out: MIC 49247
Summary of the method: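 Antibacterial activity against the Gram-negative organism Haemophilus influenzae strain 49247 was measured by microbroth dilution. The minimum inhibitory concentration (MIC) was taken as the lowest drug concentration that stopped bacterial growth from being visible to the naked eye under the test conditions.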

[11] = system: Neisseria meningitidis (N. meningitidis) 13090; assay: Antibacterial activity, MIC, N. meningitidis 13090; type: cell-based; settings: Neisseria meningitidis; N. meningitidis 13090; read-out: MIC 13090
[12] = E. coli BAS849, microbroth dilution

| Compound | MIC [1] [µg/mL] | MIC [2] [µg/mL] | MIC [3] [µg/mL] | MIC [4] [µg/mL] | MIC [5] [µg/mL] | MIC [6] [µg/mL] | MIC [7, 12] [µg/mL] | MIC [8] [µg/mL] | MIC [9] [µg/mL] | MIC [7] [µg/mL] | MIC [10] [µg/mL] | MIC [11] [µg/mL] |
| --- | --- | --- | --- | --- | --- | --- | --- | --- | --- | --- | --- | --- |
| CCc1c(-c2ccc(N3C[C@@H]4[C@H](C3)[C@H]4N(C)C)cc2)[nH]c(=O)c(C(=O)O)c1O [Cpd 271, 6-{4-[(1R,5S,6s)-6-(dimethylamino)-3-azabicyclo[3.1.0]hex-3-yl]phenyl}-5-ethyl-4-hydroxy-2-oxo-1,2-dihydropyridine-3-carboxylic acid hydrochloride] | 3.5 to 12.5 | 3.5 to 12.5 | 12.5 to 150 | 12.5 to 150 | 3.5 to 12.5 | 12.5 to 150 | < 1 | 12.5 to 150 | – | – | – | – |
| CCc1cc(C(=O)O)c(=O)[nH]c1-c1ccccc1 [Cpd 75, 5-ethyl-2-oxo-6-phenyl-1,2-dihydropyridine-3-carboxylic acid] | 12.5 to 150 (≈ 51.4 to 617 µM) | 12.5 to 150 (≈ 51.4 to 617 µM) | 12.5 to 150 (≈ 51.4 to 617 µM) | 12.5 to 150 (≈ 51.4 to 617 µM) | 12.5 to 150 (≈ 51.4 to 617 µM) | 12.5 to 150 (≈ 51.4 to 617 µM) | 1 to 3.5 (≈ 4.11 to 14.4 µM) | 12.5 to 150 (≈ 51.4 to 617 µM) | 12.5 to 150 (≈ 51.4 to 617 µM) | – | – | – |
| CN(C)c1ccc(-c2ccc(C(=O)O)c(=O)[nH]2)cc1 [Cpd 310, 6-[4-(dimethylamino)phenyl]-2-oxo-1,2-dihydropyridine-3-carboxylic acid] | 12.5 to 150 (≈ 48.4 to 581 µM) | 12.5 to 150 (≈ 48.4 to 581 µM) | 12.5 to 150 (≈ 48.4 to 581 µM) | 12.5 to 150 (≈ 48.4 to 581 µM) | 12.5 to 150 (≈ 48.4 to 581 µM) | 12.5 to 150 (≈ 48.4 to 581 µM) | 12.5 to 150 (≈ 48.4 to 581 µM) | 12.5 to 150 (≈ 48.4 to 581 µM) | 12.5 to 150 (≈ 48.4 to 581 µM) | – | – | – |
| CCc1cc(C(=O)O)c(=O)[nH]c1-c1ccc(N2CC[C@@H](N(C)C)C2)cc1.O=C(O)C(F)(F)F [Cpd 150, 6-{4-[(3R)-3-(dimethylamino)pyrrolidin-1-yl]phenyl}-5-ethyl-2-oxo-1,2-dihydropyridine-3-carboxylic acid trifluoroacetate] | 1 to 3.5 | 12.5 to 150 | – | 12.5 to 150 | 12.5 to 150 | 12.5 to 150 | – | 12.5 to 150 | < 1 | < 1 | < 1 | < 1 |
| CCc1c(-c2ccc(N3C[C@@H](O)[C@@H](O)C3)cc2)[nH]c(=O)c(C(=O)O)c1O [Cpd 304, 6-{4-[(3R,4S)-3,4-dihydroxypyrrolidin-1-yl]phenyl}-5-ethyl-4-hydroxy-2-oxo-1,2-dihydropyridine-3-carboxylic acid] | 3.5 to 12.5 (≈ 9.71 to 34.7 µM) | 12.5 to 150 (≈ 34.7 to 416 µM) | – | 12.5 to 150 (≈ 34.7 to 416 µM) | 12.5 to 150 (≈ 34.7 to 416 µM) | 12.5 to 150 (≈ 34.7 to 416 µM) | < 1 | 3.5 to 12.5 (≈ 9.71 to 34.7 µM) | < 1 | – | < 1 | < 1 |
| CCc1c(-c2ccc(N3CCC3)cc2)[nH]c(=O)c(C(=O)O)c1O [Cpd 83, 6-[4-(azetidin-1-yl)phenyl]-5-ethyl-4-hydroxy-2-oxo-1,2-dihydropyridine-3-carboxylic acid] | 3.5 to 12.5 (≈ 11.1 to 39.8 µM) | 12.5 to 150 (≈ 39.8 to 477 µM) | – | 12.5 to 150 (≈ 39.8 to 477 µM) | 12.5 to 150 (≈ 39.8 to 477 µM) | 12.5 to 150 (≈ 39.8 to 477 µM) | < 1 | 3.5 to 12.5 (≈ 11.1 to 39.8 µM) | < 1 | – | < 1 | < 1 |
| CCc1c(-c2ccc(-n3ccnc3)cc2)[nH]c(=O)c(C(=O)O)c1O [Cpd 107, 5-ethyl-4-hydroxy-6-[4-(1H-imidazol-1-yl)phenyl]-2-oxo-1,2-dihydropyridine-3-carboxylic acid] | 12.5 to 150 (≈ 38.4 to 461 µM) | 12.5 to 150 (≈ 38.4 to 461 µM) | – | 12.5 to 150 (≈ 38.4 to 461 µM) | 12.5 to 150 (≈ 38.4 to 461 µM) | 12.5 to 150 (≈ 38.4 to 461 µM) | 1 to 3.5 (≈ 3.07 to 10.8 µM) | 12.5 to 150 (≈ 38.4 to 461 µM) | < 1 | – | < 1 | < 1 |
| CCc1cc(C(=O)O)c(=O)[nH]c1-c1ccc(N2CCC(F)(F)C2)cc1 [Cpd 144, 6-[4-(3,3-difluoropyrrolidin-1-yl)phenyl]-5-ethyl-2-oxo-1,2-dihydropyridine-3-carboxylic acid] | 1 to 3.5 (≈ 2.87 to 10 µM) | 12.5 to 150 (≈ 35.9 to 431 µM) | – | 12.5 to 150 (≈ 35.9 to 431 µM) | 12.5 to 150 (≈ 35.9 to 431 µM) | 12.5 to 150 (≈ 35.9 to 431 µM) | < 1 | 3.5 to 12.5 (≈ 10 to 35.9 µM) | < 1 | – | < 1 | < 1 |
| CCc1cc(C(=O)O)c(=O)[nH]c1-c1ccc(N2CC[C@H](N(C)C)C2)cc1.Cl [Cpd 151, 6-{4-[(3S)-3-(dimethylamino)pyrrolidin-1-yl]phenyl}-5-ethyl-2-oxo-1,2-dihydropyridine-3-carboxylic acid hydrochloride] | 1 to 3.5 | 12.5 to 150 | – | 12.5 to 150 | 12.5 to 150 | 12.5 to 150 | < 1 | 12.5 to 150 | < 1 | – | < 1 | < 1 |
| CCc1cc(C(=O)O)c(=O)[nH]c1-c1ccc(N2CCOCC2)cc1 [Cpd 110, 5-ethyl-6-[4-(morpholin-4-yl)phenyl]-2-oxo-1,2-dihydropyridine-3-carboxylic acid] | 3.5 to 12.5 (≈ 10.7 to 38.1 µM) | 12.5 to 150 (≈ 38.1 to 457 µM) | – | 12.5 to 150 (≈ 38.1 to 457 µM) | 12.5 to 150 (≈ 38.1 to 457 µM) | 12.5 to 150 (≈ 38.1 to 457 µM) | < 1 | 12.5 to 150 (≈ 38.1 to 457 µM) | < 1 | – | < 1 | < 1 |
| CCc1c(-c2ccc(N3CCCC3=O)cc2)[nH]c(=O)c(C(=O)O)c1O [Cpd 115, 5-ethyl-4-hydroxy-2-oxo-6-[4-(2-oxopyrrolidin-1-yl)phenyl]-1,2-dihydropyridine-3-carboxylic acid] | 3.5 to 12.5 (≈ 10.2 to 36.5 µM) | 12.5 to 150 (≈ 36.5 to 438 µM) | – | 12.5 to 150 (≈ 36.5 to 438 µM) | 12.5 to 150 (≈ 36.5 to 438 µM) | 12.5 to 150 (≈ 36.5 to 438 µM) | < 1 | 12.5 to 150 (≈ 36.5 to 438 µM) | < 1 | – | < 1 | < 1 |
| CCc1cc(C(=O)O)c(=O)[nH]c1-c1ccc(N2CCC(OCc3ccccc3)C2)cc1 (centres unmarked) [Cpd 128, 6-{4-[3-(benzyloxy)pyrrolidin-1-yl]phenyl}-5-ethyl-2-oxo-1,2-dihydropyridine-3-carboxylic acid] | 12.5 to 150 (≈ 29.9 to 358 µM) | 12.5 to 150 (≈ 29.9 to 358 µM) | – | 12.5 to 150 (≈ 29.9 to 358 µM) | 12.5 to 150 (≈ 29.9 to 358 µM) | 12.5 to 150 (≈ 29.9 to 358 µM) | < 1 | 1 to 3.5 (≈ 2.39 to 8.36 µM) | < 1 | – | 1 to 3.5 (≈ 2.39 to 8.36 µM) | < 1 |
